Among the test systems are IGROV-1; PC-3; HT-29; SK-MEL-28; A498; MDA-MB-435; SK-MEL-2; RXF 393; SNB-19; HL-60; CCRF-CEM; OVCAR-3; MDA-MB-231; UO-31; CAKI-1; SF-295; SR; NCI-H522; SW-620; SK-OV-3.
What all share (test): NCI-60 cell line screen, 48 h

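All cell lines were grown in 96-well plates and treated with compound for 48 hours. Here, GI50 denotes the concentration required for 50% inhibition of growth.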 Active and inactive are the calls of the source. Rule as the data show it: active = GI50 up to about 1.1 µM and inactive = higher. Some results are limits rather than exact numbers.

Regarding `O=C1c2cc(I)ccc2N2CCN=C2N1Cc1ccccc1`, the GI50 is > 100 µM (inactive) in the test on IGROV-1; > 100 µM (inactive) with PC-3; > 100 µM (inactive) in the test on HT-29; > 100 µM (inactive) with SK-MEL-28; 0.723 µM (active) with A498; > 100 µM (inactive) in the test on MDA-MB-435. Besides, the GI50 with SK-MEL-2 was > 100 µM (inactive); with RXF 393 it was 23.7 µM (inactive); with SNB-19 it was 63.8 µM (inactive); in the test with HL-60, 0.551 µM (active); in the test with CCRF-CEM it was > 100 µM (inactive); with OVCAR-3, > 100 µM (inactive). The GI50 in the test with MDA-MB-231 is > 100 µM (inactive); with UO-31 it was 57.4 µM (inactive); in the test with CAKI-1, > 100 µM (inactive); in the test on SF-295, 73.1 µM (inactive); in the test on SR, 84.5 µM (inactive); in the test on NCI-H522, > 100 µM (inactive). The values for the GI50 with SW-620 and in the test with SK-OV-3 were > 100 µM (inactive) and 47.4 µM (inactive), respectively.

In the case of `O=C1CCC2(CC1CC(Sc1ccccc1)Sc1ccccc1)OCCO2` (stereo not given), the GI50 is 74.3 µM (inactive) in the test with IGROV-1; 25.2 µM (inactive) in the test with PC-3; 61.4 µM (inactive) with HT-29; 85.9 µM (inactive) in the test on SK-MEL-28; 74.3 µM (inactive) in the test with A498; 36.7 µM (inactive) in the test on MDA-MB-435. For the same molecule, the GI50 in the test with SK-MEL-2 was 24.9 µM (inactive); in the test on RXF 393, 36.1 µM (inactive); in the test with SNB-19 it was 74.1 µM (inactive); in the test with HL-60 it was 19.8 µM (inactive); with CCRF-CEM, 31 µM (inactive); in the test with OVCAR-3, 30.6 µM (inactive). Moreover, the GI50 in the test on MDA-MB-231 was 83.4 µM (inactive); with UO-31, 36.1 µM (inactive); in the test with CAKI-1, 34.9 µM (inactive); in the test with SF-295, 52.6 µM (inactive); with SR, 26.4 µM (inactive); with NCI-H522, 23.3 µM (inactive). In addition, the GI50 was 49.4 µM (inactive) in the test on SW-620 and > 100 µM (inactive) in the test on SK-OV-3.

As for `COc1ccccc1NC1Oc2cc3c(cc2C(c2cc(OC)c(OC)c(OC)c2)C1C)OCO3` (stereo not given), the GI50 is 3.24 µM (inactive) in the test with IGROV-1; 1.12 µM (active) with PC-3; 2.11 µM (inactive) in the test with HT-29; > 25.1 µM (inactive) in the test with SK-MEL-28; 4.9 µM (inactive) with A498; 0.242 µM (active) with MDA-MB-435. Moreover, the GI50 with SK-MEL-2 was 5.85 µM (inactive); in the test with RXF 393, 1.14 µM (inactive); in the test with SNB-19 it was 6.56 µM (inactive); in the test with HL-60 it was 0.612 µM (active); in the test on CCRF-CEM, 2.37 µM (inactive); with OVCAR-3 it was 1.52 µM (inactive). In addition, the GI50 is 1.78 µM (inactive) with MDA-MB-231; 3.58 µM (inactive) with UO-31; 2.22 µM (inactive) in the test on CAKI-1; 0.689 µM (active) in the test on SF-295; 1.03 µM (active) in the test with SR; 1.45 µM (inactive) in the test on NCI-H522. For the same molecule, the GI50 is 1.19 µM (inactive) in the test on SW-620 and 10.5 µM (inactive) in the test with SK-OV-3.

Regarding `CCN(CCO)CCNc1ccc(C)c2sc3ccccc3c(=O)c12`, the GI50 is 4.2 µM (inactive) in the test with IGROV-1; 3.31 µM (inactive) in the test with PC-3; 2.52 µM (inactive) in the test on HT-29; 2.02 µM (inactive) in the test with SK-MEL-28; 15 µM (inactive) in the test with A498; 1.96 µM (inactive) in the test with MDA-MB-435. The GI50 is 3.59 µM (inactive) with SK-MEL-2; 1.25 µM (inactive) in the test with RXF 393; 11 µM (inactive) with SNB-19; 3.37 µM (inactive) in the test with HL-60; 6.04 µM (inactive) in the test with CCRF-CEM; 10.2 µM (inactive) with OVCAR-3. Besides, the GI50 with MDA-MB-231 is 1.88 µM (inactive); in the test with UO-31, 5.41 µM (inactive); with CAKI-1, 4.73 µM (inactive); in the test with SF-295 it was 3.82 µM (inactive); in the test on SR, 6.01 µM (inactive); in the test on NCI-H522, 4.89 µM (inactive). The values for the GI50 with SW-620 and in the test on SK-OV-3 were 2.28 µM (inactive) and 5.66 µM (inactive), respectively.

In the case of `Cc1cc(=O)oc2c(C3=NN(C=O)C(c4ccccc4)C3)c(O)ccc12` (stereo not given), the GI50 in the test on IGROV-1 was 70 µM (inactive); in the test with PC-3, > 74.1 µM (inactive); in the test with HT-29, > 80.7 µM (inactive); with SK-MEL-28, > 100 µM (inactive); with A498, > 56.2 µM (inactive); in the test with MDA-MB-435, > 65.9 µM (inactive). The GI50 is 52.5 µM (inactive) in the test with SK-MEL-2; 38.2 µM (inactive) with RXF 393; 47.4 µM (inactive) in the test on SNB-19; > 100 µM (inactive) in the test on HL-60; 60.5 µM (inactive) in the test on CCRF-CEM; > 71.3 µM (inactive) with OVCAR-3. The GI50 with MDA-MB-231 is 59.6 µM (inactive); in the test on UO-31 it was 64.3 µM (inactive); in the test with CAKI-1, > 72.1 µM (inactive); in the test with SF-295, 10 µM (inactive); in the test on SR it was 60.1 µM (inactive); in the test with NCI-H522 it was 54 µM (inactive). Besides, the values for the GI50 in the test with SW-620 and in the test on SK-OV-3 were > 100 µM (inactive) and 20.2 µM (inactive), respectively.

Consider `Cc1[nH]n(-c2ncc(C(=O)O)c(=O)[nH]2)c(=O)c1CCO`, for which the GI50 in the test on IGROV-1 is > 100 µM (inactive); in the test on PC-3, > 100 µM (inactive); in the test with HT-29, > 83.8 µM (inactive); in the test with SK-MEL-28 it was > 100 µM (inactive); in the test on A498, > 100 µM (inactive); with MDA-MB-435, > 100 µM (inactive). Also, the GI50 in the test with SK-MEL-2, in the test on RXF 393, with SNB-19, in the test on HL-60, in the test with CCRF-CEM and with OVCAR-3 was > 100 µM (inactive) each time. For the same molecule, the GI50 in the test with MDA-MB-231 was > 100 µM (inactive); in the test on UO-31, > 100 µM (inactive); in the test with CAKI-1, > 100 µM (inactive); in the test on SF-295 it was > 100 µM (inactive); in the test on SR it was > 37 µM (inactive); with NCI-H522 it was > 100 µM (inactive). For the same molecule, the GI50 in the test with SW-620 and in the test with SK-OV-3 was > 100 µM (inactive) each time.

Regarding `CN(C)CCC(C(=O)C(C)(C)C)c1ccccn1` (stereo not given), the GI50 in the test with IGROV-1, with PC-3, with HT-29, in the test with SK-MEL-28, in the test on A498 and in the test on MDA-MB-435 was > 100 µM (inactive) each time. The GI50 with SK-MEL-2 was > 100 µM (inactive); in the test with RXF 393 it was > 100 µM (inactive); with SNB-19, > 100 µM (inactive); in the test on HL-60, > 100 µM (inactive); with CCRF-CEM it was > 100 µM (inactive); in the test with OVCAR-3, < 0.01 µM (active). The GI50 in the test with MDA-MB-231, in the test on UO-31, in the test with CAKI-1, with SF-295, in the test on SR and with NCI-H522 was > 100 µM (inactive) throughout. In addition, the GI50 in the test with SW-620 and with SK-OV-3 was > 100 µM (inactive) in each case.

On to `CC(=O)OCC1OC(n2c(C)c(C)c(C)c(C#N)c2=S)C(OC(C)=O)C(OC(C)=O)C1OC(C)=O` (stereo not given), for which the GI50 in the test on IGROV-1, with PC-3, in the test with HT-29, with SK-MEL-28, with A498 and in the test with MDA-MB-435 was > 100 µM (inactive) each time. Also, the GI50 in the test with SK-MEL-2 is 31.9 µM (inactive); in the test with RXF 393, 18.6 µM (inactive); in the test on SNB-19, 33.7 µM (inactive); in the test with HL-60, > 100 µM (inactive); in the test on CCRF-CEM, > 100 µM (inactive); with OVCAR-3 it was > 100 µM (inactive). In addition, the GI50 with MDA-MB-231 is > 100 µM (inactive); in the test on UO-31 it was 14.7 µM (inactive); in the test on CAKI-1, > 100 µM (inactive); in the test on SF-295, 14.8 µM (inactive); in the test on SR it was > 100 µM (inactive); with NCI-H522, 21.8 µM (inactive). In addition, the results for the GI50 with SW-620 and in the test on SK-OV-3 were > 100 µM (inactive) and 24.8 µM (inactive), respectively.

As for `O=C(CSc1nc(O)nc2[nH]cnc12)Nc1ccccc1`, the GI50 with IGROV-1 is > 100 µM (inactive); in the test with PC-3 it was 36.6 µM (inactive); with HT-29, > 100 µM (inactive); with SK-MEL-28, > 100 µM (inactive); in the test on A498, 76.7 µM (inactive); in the test on MDA-MB-435, 53.1 µM (inactive). Besides, the GI50 in the test on SK-MEL-2 is > 100 µM (inactive); in the test on RXF 393 it was > 100 µM (inactive); with SNB-19 it was > 100 µM (inactive); with HL-60, > 100 µM (inactive); in the test on CCRF-CEM it was 33.7 µM (inactive); in the test with OVCAR-3, > 100 µM (inactive). The GI50 in the test on MDA-MB-231 was > 100 µM (inactive); in the test on UO-31, > 100 µM (inactive); with CAKI-1 it was > 100 µM (inactive); in the test on SF-295, 86.9 µM (inactive); in the test on SR, 51.6 µM (inactive); in the test with NCI-H522, 86.9 µM (inactive). Moreover, the GI50 in the test with SW-620 is 66.4 µM (inactive); with SK-OV-3 it was > 100 µM (inactive).

On to `O=C(Nc1c(Cl)cc([N+](=O)[O-])cc1Cl)C(=O)C1C(=O)NC(=S)NC1=O`, for which the GI50 with IGROV-1, in the test on PC-3, with HT-29, in the test with SK-MEL-28, in the test with A498 and in the test with MDA-MB-435 was > 100 µM (inactive) each time. In addition, the GI50 in the test with SK-MEL-2, in the test with RXF 393, in the test on SNB-19, in the test with HL-60, in the test on CCRF-CEM and in the test on OVCAR-3 was > 100 µM (inactive) throughout. Besides, the GI50 in the test with MDA-MB-231 is > 100 µM (inactive); with UO-31 it was > 100 µM (inactive); with CAKI-1, > 100 µM (inactive); in the test with SF-295, > 100 µM (inactive); in the test on SR, > 10 µM (inactive); with NCI-H522 it was > 100 µM (inactive). For the same molecule, the GI50 with SW-620 and in the test with SK-OV-3 was > 100 µM (inactive) throughout.
